Several values for one entry are separate records, joined by “and”; a condition that tells them apart may be missing. Identical values can stand only once.
Key:
[1] = test system: pSARS-CoV-2; type: cell-based, SARS-CoV-2
[2] = test system: 293 T-ACE2 cells
[3] = target: SARS-CoV-2 3CL protease (Severe acute respiratory syndrome coronavirus 2, UniProt P0DTD1); test: biochemical; conditions: for inhibition at 100 µM: read-out: inhibition rate against 3CL (%)
[4] = test system: SARS 3CL protease; conditions: read-out: IC50 on SARS 3CL protease activity; cited from earlier work

2′-Oxopethyl-3β-O-[2, 4-di-O-(α-l-rhamnopyranosyl)-β-d-glucopyranosyl]-lup-20 (29)-ene-28-oic acid [BA-13]
EC50 [1]: 8.61 ± 0.47 µM
SI [1]: 4.21
CC50 [2]: 36.2 ± 0.75 µM

C=C(C)[C@@H]1CC[C@]2(C(=O)O)CC[C@]3(C)[C@H](CC[C@@H]4[C@@]5(C)CC[C@H](O)C(C)(C)[C@@H]5CC[C@]43C)[C@@H]12 [BA, Betulinic acid]
inhibition rate against 3CL (%) [3]: 51.4%
inhibition at 100 µM [3]: 72.2%
IC50 [4]: 10 µM

C=C(C)[C@@H]1CC[C@]2(C(=O)OCC)CC[C@]3(C)[C@H](CC[C@@H]4[C@@]5(C)CC[C@H](O[C@@H]6O[C@H](CO)[C@@H](O[C@@H]7O[C@@H](C)[C@H](O)[C@@H](O)[C@H]7O)[C@H](O)[C@H]6O[C@@H]6O[C@@H](C)[C@H](O)[C@@H](O)[C@H]6O)C(C)(C)[C@@H]5CC[C@]43C)[C@@H]12 [BA-3, Ethyl-3β-O-[2,4-di-O-(α-l-rhamnopyranosyl)-β-d-glucopyranosyl]-lup-20 (29)-ene-28-oic acid]
EC50 [1]: 3.7 ± 0.72 µM
SI [1]: 9.76
CC50 [2]: 36.1 ± 1.05 µM

C=C(C)[C@@H]1CC[C@]2(C(=O)OCCCC)CC[C@]3(C)[C@H](CC[C@@H]4[C@@]5(C)CC[C@H](O[C@@H]6O[C@H](CO)[C@@H](O[C@@H]7O[C@@H](C)[C@H](O)[C@@H](O)[C@H]7O)[C@H](O)[C@H]6O[C@@H]6O[C@@H](C)[C@H](O)[C@@H](O)[C@H]6O)C(C)(C)[C@@H]5CC[C@]43C)[C@@H]12 [BA-5, n-Butyl-3β-O-[2,4-di-O-(α-l-rhamnopyranosyl)-β-d-glucopyranosyl]-lup-20 (29)-ene-28-oic acid]
EC50 [1]: 6.42 ± 0.2 µM
SI [1]: 11.91
CC50 [2]: 76.5 ± 1.23 µM

C=C(C)[C@@H]1CC[C@]2(C(=O)OCCCCC)CC[C@]3(C)[C@H](CC[C@@H]4[C@@]5(C)CC[C@H](O[C@@H]6O[C@H](CO)[C@@H](O[C@@H]7O[C@@H](C)[C@H](O)[C@@H](O)[C@H]7O)[C@H](O)[C@H]6O[C@@H]6O[C@@H](C)[C@H](O)[C@@H](O)[C@H]6O)C(C)(C)[C@@H]5CC[C@]43C)[C@@H]12 [BA-6, n-Pentyl-3β-O-[2,4-di-O-(α-l-rhamnopyranosyl)-β-d-glucopyranosyl]-lup-20 (29)-ene-28-oic acid]
EC50 [1]: 5.37 ± 0.37 µM
SI [1]: 4.54
CC50 [2]: 24.4 ± 0.33 µM
fold increased toxic [2]: 1.7 fold

C=C(C)[C@@H]1CC[C@]2(C(=O)OCCCCCC)CC[C@]3(C)[C@H](CC[C@@H]4[C@@]5(C)CC[C@H](O[C@@H]6O[C@H](CO)[C@@H](O[C@@H]7O[C@@H](C)[C@H](O)[C@@H](O)[C@H]7O)[C@H](O)[C@H]6O[C@@H]6O[C@@H](C)[C@H](O)[C@@H](O)[C@H]6O)C(C)(C)[C@@H]5CC[C@]43C)[C@@H]12 [BA-7, n-Hexyl-3β-O-[2,4-di-O-(α-l-rhamnopyranosyl)-β-d-glucopyranosyl]-lup-20 (29)-ene-28-oic acid]
EC50 [1]: 5.54 ± 0.81 µM
SI [1]: 2.96
CC50 [2]: 16.4 ± 0.19 µM
fold increased toxic [2]: 2.5 fold

C=C(C)[C@@H]1CC[C@]2(C(=O)OC(C)C)CC[C@]3(C)[C@H](CC[C@@H]4[C@@]5(C)CC[C@H](O[C@@H]6O[C@H](CO)[C@@H](O[C@@H]7O[C@@H](C)[C@H](O)[C@@H](O)[C@H]7O)[C@H](O)[C@H]6O[C@@H]6O[C@@H](C)[C@H](O)[C@@H](O)[C@H]6O)C(C)(C)[C@@H]5CC[C@]43C)[C@@H]12 [BA-8, Isopropyl-3β-O-[2,4-di-O-(α-l-rhamnopyranosyl)-β-d-glucopyranosyl]-lup-20 (29)-ene-28-oic acid]
EC50 [1]: 6.05 ± 0.38 µM
SI [1]: 7.81
CC50 [2]: 47.2 ± 0.63 µM

C=C(C)C1CCC2(C(=O)OC3CCCCC3)CCC3(C)C(CCC4C5(C)CCC(OC6OC(CO)C(OC7OC(C)C(O)C(O)C7O)C(O)C6OC6OC(C)C(O)C(O)C6O)C(C)(C)C5CCC43C)C12 (stereo not drawn) [BA-9, Cyclohexyl-3β-O-[2,4-di-O-(α-l-rhamnopyranosyl)-β-d-glucopyranosyl]-lup-20 (29)-ene-28-oic acid]
EC50 [1]: > 20 µM
activity against pSARS-CoV-2 [1]: entirely lost

C=C(C)[C@@H]1CC[C@]2(C(=O)OCCCl)CC[C@]3(C)[C@H](CC[C@@H]4[C@@]5(C)CC[C@H](O[C@@H]6O[C@H](CO)[C@@H](O[C@@H]7O[C@@H](C)[C@H](O)[C@@H](O)[C@H]7O)[C@H](O)[C@H]6O[C@@H]6O[C@@H](C)[C@H](O)[C@@H](O)[C@H]6O)C(C)(C)[C@@H]5CC[C@]43C)[C@@H]12 [BA-10, 2′-Chloroethyl-3β-O-[2,4-di-O-(α-l-rhamnopyranosyl)-β-d-glucopyranosyl]-lup-20 (29)-ene-28-oic acid]
EC50 [1]: 7.67 ± 0.31 µM
SI [1]: 6.75
fold decreased potency [1]: 2.4 fold
CC50 [2]: 51.8 ± 1.35 µM

C=C(C)[C@@H]1CC[C@]2(C(=O)OCCBr)CC[C@]3(C)[C@H](CC[C@@H]4[C@@]5(C)CC[C@H](O[C@@H]6O[C@H](CO)[C@@H](O[C@@H]7O[C@@H](C)[C@H](O)[C@@H](O)[C@H]7O)[C@H](O)[C@H]6O[C@@H]6O[C@@H](C)[C@H](O)[C@@H](O)[C@H]6O)C(C)(C)[C@@H]5CC[C@]43C)[C@@H]12 [BA-11, 2′-Bromoethyl 3β-O-[2,4-di-O-(α-l-rhamnopyranosyl)-β-d-glucopyranosyl]-lup-20 (29)-ene-28-oic acid]
EC50 [1]: 9.03 ± 0.56 µM
SI [1]: 5.11
CC50 [2]: 46.12 ± 0.31 µM

C=C(C)C1CCC2(C(=O)OCCO)CCC3(C)C(CCC4C5(C)CCC(OC6OC(CO)C(OC7OC(C)C(O)C(O)C7O)C(O)C6OC6OC(C)C(O)C(O)C6O)C(C)(C)C5CCC43C)C12 (stereo not drawn) [BA-12, 2′-Hydroxylethyl-3β-O-[2,4-di-O-(α-l-rhamnopyranosyl)-β-d-glucopyranosyl]-lup-20 (29)-ene-28-oic acid]
EC50 [1]: > 20 µM
activity against pSARS-CoV-2 [1]: total loss of potency

C=CCOC(=O)[C@]12CC[C@@H](C(=C)C)[C@@H]1[C@H]1CC[C@@H]3[C@@]4(C)CC[C@H](O[C@@H]5O[C@H](CO)[C@@H](O[C@@H]6O[C@@H](C)[C@H](O)[C@@H](O)[C@H]6O)[C@H](O)[C@H]5O[C@@H]5O[C@@H](C)[C@H](O)[C@@H](O)[C@H]5O)C(C)(C)[C@@H]4CC[C@@]3(C)[C@]1(C)CC2 [BA-14, Allyl-3β-O-[2,4-di-O-(α-l-rhamnopyranosyl)-β-d-glucopyranosyl]-lup-20 (29)-ene-28-oic acid]
EC50 [1]: 8.23 ± 0.55 µM
SI [1]: 10.28
fold decreased potency [1]: 2.6 fold
CC50 [2]: 84.62 ± 0.76 µM

C=C(C)[C@@H]1CC[C@]2(C(=O)OCC3CC3)CC[C@]3(C)[C@H](CC[C@@H]4[C@@]5(C)CC[C@H](O[C@@H]6O[C@H](CO)[C@@H](O[C@@H]7O[C@@H](C)[C@H](O)[C@@H](O)[C@H]7O)[C@H](O)[C@H]6O[C@@H]6O[C@@H](C)[C@H](O)[C@@H](O)[C@H]6O)C(C)(C)[C@@H]5CC[C@]43C)[C@@H]12 [BA-15, Cyclopropylmethyl-3β-O-[2,4-di-O-(α-l-rhamnopyranosyl)-β-d-glucopyranosyl]-lup-20 (29)-ene-28-oic acid]
EC50 [1]: 15.9 ± 0.82 µM
SI [1]: 4.75
fold decreased potency [1]: 4.9 fold
CC50 [2]: 75.5 ± 1.63 µM

O=c1c2ccccc2[se]n1-c1ccccc1 [Ebselen]
inhibition rate against 3CL (%) [3]: 97.6% and 96.2%
inhibition at 100 µM [3]: 98.5%

Reference: paper PMC9729598 (Bioorganic Chemistry, 2022)
